The text below walks through data of patent US8932597B2 (priority 2008, dated 2015).

The subject of this experiment is anti-M2 human monoclonal antibody Z3G1. Format: binding.

On to “1339 (MCLLTEVGMSLLCEV; epitope peptide) [compound 1339]”, for which the “Signal (peptides that bind to Z3G1)” value is on record as 2234.

With “1284 (MSLLHEVETPIRNEWGCRCN; epitope peptide) [compound 1284]”, the “Signal (peptides that bind to Z3G1)” value is listed as 2691.

As to “1327 (MSLLCEVETPICNE; epitope peptide) [compound 1327]”, the “Signal (peptides that bind to Z3G1)” value amounted to 2704.

In the case of “1558 (SCLCECGSLLCEV; epitope peptide) [compound 1558]”, the “Signal (peptides that show specific binding to Z3G1)” value is reported as 1747.

In the case of “1323 (MCLLTEVCTPIRNE; epitope peptide) [compound 1323]”, the “Signal (peptides that bind to Z3G1)” value came out at 1407.

As to “1270 (MSLDTEVETPIRNEWGCRCN; epitope peptide) [compound 1270]”, the “Signal (peptides that bind to Z3G1)” value worked out at 2594.

For “1560 (SLLCEVGCSCLCEV; epitope peptide) [compound 1560]”, the “Signal (peptides that show specific binding to Z3G1)” value turned out to be 2112.

As for “1482 (CETPIRNEWGLLTEVETPICEVETPIRNE; epitope peptide; MISC_FEATURE (1)..(1): C is an attachment site for a CLIP; MISC_FEATURE (10)..(10): G is an attachment site for a CLIP; MISC_FEATURE (11)..(11): L is an attachment site for a CLIP; MISC_FEATURE (29)..(29): E is an attachment site for a CLIP) [compound 1482]”, the “Signal (peptides that bind to Z3G1)” value is given as 1648.

As to “1263 (MRLLTEVETPIRNEWGCRCN; epitope peptide) [compound 1263]”, the “Signal (peptides that bind to Z3G1)” value was determined as 2519.

Regarding “1324 (MCLLCEVETPIRNE; epitope peptide) [compound 1324]”, the “Signal (peptides that bind to Z3G1)” value came out at 2038.

On to “1384 (CLLCEVETPIRNEWG; epitope peptide) [compound 1384]”, for which the “Signal (peptides that bind to Z3G1)” value came out at 2388.

For “1274 (MSLNTEVETPIRNEWGCRCN; epitope peptide) [compound 1274]”, the “Signal (peptides that bind to Z3G1)” value is listed as 2787.

As for “1357 (CLLTEVETCIRNE; epitope peptide) [compound 1357]”, the “Signal (peptides that bind to Z3G1)” value was 1661.

As for “1338 (MSLLCEVGMSLCTEV; epitope peptide) [compound 1338]”, the “Signal (peptides that bind to Z3G1)” value stood at 2595.

On to “1273 (MSLMTEVETPIRNEWGCRCN; epitope peptide) [compound 1273]”, for which the “Signal (peptides that bind to Z3G1)” value worked out at 2804.

As to “1480 (CEVETPIRNELLTEVETPICEVETPIRNE; epitope peptide; MISC_FEATURE (1)..(1): C is an attachment site for a CLIP; MISC_FEATURE (10)..(10): E is an attachment site for a CLIP; MISC_FEATURE (11)..(11): L is an attachment site for a CLIP; MISC_FEATURE (29)..(29): E is an attachment site for a CLIP) [compound 1480]”, the “Signal (peptides that bind to Z3G1)” value is listed as 1394.

For the substance “1399 (SLLTEVETPIRNECG; epitope peptide) [compound 1399]”, the “Signal (peptides that bind to Z3G1)” value is recorded as 1545.

On to “1371 (SLLCEVETPIRNE; epitope peptide) [compound 1371]”, for which the “Signal (peptides that bind to Z3G1)” value was determined as 2511.

On to “1311 (MSLLTEVYTPIRNEWGCRCN; epitope peptide) [compound 1311]”, for which the “Signal (peptides that bind to Z3G1)” value turned out to be 2181.

As for “1459 (CTEVETPIRNLLTEVETPICTEVETPIRN; epitope peptide; MISC_FEATURE (1)..(1): C is an attachment site for a CLIP; MISC_FEATURE (10)..(10): N is an attachment site for a CLIP; MISC_FEATURE (11)..(11): L is an attachment site for a CLIP; MISC_FEATURE (29)..(29): N is an attachment site for a CLIP) [compound 1459]”, the “Signal (peptides that bind to Z3G1)” value is recorded as 1749.

Regarding “1261 (MPLLTEVETPIRNEWGCRCN; epitope peptide) [compound 1261]”, the “Signal (peptides that bind to Z3G1)” value worked out at 2521.

Regarding “1557 (CLCTCVGSLLCEV; epitope peptide) [compound 1557]”, the “Signal (peptides that show specific binding to Z3G1)” value is on record as 2246.

“1574 (RLLTEVETPIRNEWGCRCNDSSD; epitope peptide) [compound 1574]”: the “Signal (peptides that show specific binding to Z3G1)” value is listed as 1338.

Consider “1351 (MSLLCEVGMSCLCEC; epitope peptide) [compound 1351]”, for which the “Signal (peptides that bind to Z3G1)” value is listed as 2492.

As for “1391 (SLLCEVETPICNEWG; epitope peptide) [compound 1391]”, the “Signal (peptides that bind to Z3G1)” value was found to be 2536.

As to “1296 (MSLLYEVETPIRNEWGCRCN; epitope peptide) [compound 1296]”, the “Signal (peptides that bind to Z3G1)” value was found to be 2464.

For “1375 (SLLTEVETPIRNEWCC; epitope peptide) [compound 1375]”, the “Signal (peptides that bind to Z3G1)” value is recorded as 1813.

Turning to “1563 (DLLTEVETPIRNEWGCRCNDSSD; epitope peptide) [compound 1563]”, the “Signal (peptides that show specific binding to Z3G1)” value was 2320.

“1584 (SLLIEVETPIRNEWGCRCNDSSD; epitope peptide) [compound 1584]”: the “Signal (peptides that show specific binding to Z3G1)” value was determined as 1899.

With “1337 (MCLLTEVGMSLCTEV; epitope peptide) [compound 1337]”, the “Signal (peptides that bind to Z3G1)” value is 2513.

With “1347 (MSLLCEVGMSLLTCV; epitope peptide) [compound 1347]”, the “Signal (peptides that bind to Z3G1)” value was found to be 2784.

Turning to “1302 (MSLLTEVGTPIRNEWGCRCN; epitope peptide) [compound 1302]”, the “Signal (peptides that bind to Z3G1)” value was 2789.

For the substance “1286 (MSLLKEVETPIRNEWGCRCN; epitope peptide) [compound 1286]”, the “Signal (peptides that bind to Z3G1)” value was found to be 2825.

As to “1588 (SLLREVETPIRNEWGCRCNDSSD; epitope peptide) [compound 1588]”, the “Signal (peptides that show specific binding to Z3G1)” value was determined as 2286.

As for “1498 (CETPIRNEWGLLTEVETPICVETPIRNEW; epitope peptide; MISC_FEATURE (1)..(1): C is an attachment site for a CLIP; MISC_FEATURE (10)..(10): G is an attachment site for a CLIP; MISC_FEATURE (11)..(11): L is an attachment site for a CLIP; MISC_FEATURE (29)..(29): W is an attachment site for a CLIP) [compound 1498]”, the “Signal (peptides that bind to Z3G1)” value came out at 1817.

Turning to “1300 (MSLLTEVDTPIRNEWGCRCN; epitope peptide) [compound 1300]”, the “Signal (peptides that bind to Z3G1)” value is on record as 2856.

Consider “1342 (MSLLTCVGMSLLCEV; epitope peptide) [compound 1342]”, for which the “Signal (peptides that bind to Z3G1)” value stood at 2712.

Regarding “1369 (SLLTEVETPCRCE; epitope peptide) [compound 1369]”, the “Signal (peptides that bind to Z3G1)” value was 1546.

“1362 (SLLCEVETPIRCE; epitope peptide) [compound 1362]”: the “Signal (peptides that bind to Z3G1)” value is given as 2307.

As for “1458 (CLTEVETPIRLLTEVETPICTEVETPIRN; epitope peptide; MISC_FEATURE (1)..(1): C is an attachment site for a CLIP; MISC_FEATURE (10)..(10): R is an attachment site for a CLIP; MISC_FEATURE (11)..(11): L is an attachment site for a CLIP; MISC_FEATURE (29)..(29): N is an attachment site for a CLIP) [compound 1458]”, the “Signal (peptides that bind to Z3G1)” value amounted to 1756.

As to “1325 (MSLLCEVETPIRNC; epitope peptide) [compound 1325]”, the “Signal (peptides that bind to Z3G1)” value is 2823.

For the substance “1571 (NLLTEVETPIRNEWGCRCNDSSD; epitope peptide) [compound 1571]”, the “Signal (peptides that show specific binding to Z3G1)” value was determined as 2135.

For “1366 (SLLCEVECPIRNE; epitope peptide) [compound 1366]”, the “Signal (peptides that bind to Z3G1)” value was 2377.

Consider “1561 (SLLCEVGCLCTCV; epitope peptide) [compound 1561]”, for which the “Signal (peptides that show specific binding to Z3G1)” value is given as 2331.

Regarding “1320 (MCLLTEVETPCRNE; epitope peptide) [compound 1320]”, the “Signal (peptides that bind to Z3G1)” value was 2404.

For “1497 (CVETPIRNEWLLTEVETPICVETPIRNEW; epitope peptide; MISC_FEATURE (1)..(1): C is an attachment site for a CLIP; MISC_FEATURE (10)..(10): W is an attachment site for a CLIP; MISC_FEATURE (11)..(11): L is an attachment site for a CLIP; MISC_FEATURE (29)..(29): W is an attachment site for a CLIP) [compound 1497]”, the “Signal (peptides that bind to Z3G1)” value is reported as 1817.

Regarding “1478 (CLTEVETPIRLLTEVETPICEVETPIRNE; epitope peptide; MISC_FEATURE (1)..(1): C is an attachment site for a CLIP; MISC_FEATURE (10)..(10): R is an attachment site for a CLIP; MISC_FEATURE (11)..(11): L is an attachment site for a CLIP; MISC_FEATURE (29)..(29): E is an attachment site for a CLIP) [compound 1478]”, the “Signal (peptides that bind to Z3G1)” value is on record as 1681.

For the substance “1361 (SLLCEVETPIRNC; epitope peptide) [compound 1361]”, the “Signal (peptides that bind to Z3G1)” value was determined as 2460.

As for “1396 (SLLCEVETPIRNEWG; epitope peptide) [compound 1396]”, the “Signal (peptides that bind to Z3G1)” value was 2384.

Take “1358 (CLLTEVECPIRNE; epitope peptide) [compound 1358]”: the “Signal (peptides that bind to Z3G1)” value is on record as 2326.

With “1565 (FLLTEVETPIRNEWGCRCNDSSD; epitope peptide) [compound 1565]”, the “Signal (peptides that show specific binding to Z3G1)” value turned out to be 1018.
